“Also recorded” adds a separate entry of the source. Read-outs that look alike come from different tables or passages of the source. Marks after values point to notes of the source that are not given here.
Columns and labels:
[1] = Infinite-dose kinetic permeation assay, vertical Franz diffusion cells, Nuclepore membrane; format: in vitro ADME; conditions: NP, DS 3% / LIDO 2% in PG; for J (flux): Higuchi model
Description: (§1) Lastly, the entire system was clamped shut.

[2] = Infinite-dose kinetic permeation assay, vertical Franz diffusion cells, 5% SEL lanolin membrane; format: in vitro ADME
Protocol: (§2) For the preparation of the membranes, the procedure described by Pullmannová, et al. was followed. […] Next, 300 µL of the lipid solution was spread onto the pre-weighed NP membranes (≈15 mg lanolin) in a three-step process. The solvent was then evaporated under a stream of N2. The lipid membranes prepared were vacuum-dried over […] in a desiccator and were stored in a fridge at 5 °C for 24 h. Prior to use, the lanolin-based membranes were then heated to 75 °C, equilibrated for 10 min, and then cooled down slowly (~3 h) to 32 °C. The last part of the cooling-heating cycle was incubation for 24 h at 32 °C. Using a skin pHmeter (Sebumeter pH 900, Courage + Khazaka, Cologne, Germany), the pH of the membranes was determined.
as §1

[3] = Infinite-dose kinetic permeation assay, vertical Franz diffusion cells, 5% WEL lanolin membrane; format: in vitro ADME; conditions: DS 3% / LIDO 2% in PG; for J (flux): Ord 0 model
Protocol: as §2, §1

[4] = Finite-dose penetration test, Franz diffusion cells, Nuclepore-SEL membrane; format: in vitro ADME; conditions: finite dose 20 µL, 24 h, Figure 1
[5] = infinite dose

Compound	Kinetics of Release (best-fit model) [1]	J (flux) [1]	J (flux) ([2]; Higuchi model, LIDO 2% in PG)	J (flux) [3]	Kinetics of Release (best-fit model) ([2]; DS 3% / LIDO 2% in PG)	J (flux) ([2]; Ord 0 model, DS 3% in PG)	Kinetics of Release (best-fit model) ([3]; listed as DS)	permeation through Nuclepore-SEL membrane compared with skin [4]	Kinetics of Release (best-fit model) ([5]; SKIN, DS 3% / LIDO 2% in PG)	J (flux) ([5]; SKIN, Ord 0 model, DS 3% / LIDO 2% in PG)	permeability (percentage permeated through the skin) ([5]; pig skin, at 30 h)
CCN(CC)CC(=O)Nc1c(C)cccc1C [Lidocaine, lidocaine]	Higuchi	1360.27 * µg/cm^2/h^½	343.05 * µg/cm^2/h^½	4.85 µg/cm^2/h							
O=C(O)Cc1ccccc1Nc1c(Cl)cccc1Cl [Diclofenac Sodium, Diclofenac sodium]	Higuchi	2307.12 * µg/cm^2/h^½		6.18 µg/cm^2/h	Ord 0	30.40 * µg/cm^2/h	zero-order kinetics; also recorded: Ord 0	insignificant difference compared with the skin	Ord 0	3.94 µg/cm^2/h	0.83 ± 0.42%

Source: PMC8232266, “Lanolin-Based Synthetic Membranes for Transdermal Permeation and Penetration Drug Delivery Assays” (Membranes, 2021)
